Data as given in patent publication US6514510B1, “Insecticidal and miticidal compositions” (BASF Aktiengesellschaft, priority 1996, dated 2003).

Assays:
[1] = system: Kanzawa spider mite (Tetranychus kanzawai kishida) which are resistant to Compound A; assay: Miticidal effect against female imagines of Kanzawa spider mite resistant to Compound A (leaf disk spray test); conditions: for LC50 (ppm): single active ingredient, female imago, Compound A-resistant colony, mortality two days after spray treatment, probit method
Description: Round leaf disks (2 cm diameter) are cut out of a first leaf of kidney bean by using a leaf punch and 4 sheets of the leaf disks are placed on wet sanitary cotton on a PVC cup of 8 cm diameter.
Each PVC cup is sprayed with 3.5 ml of the test solution by using a rotary spray tower (manufactured by Mizuho Scientific Co., Ltd.) and stored in a constant temperature chamber held at 25±° C. (32 individuals are tested per concentration, 4-5 concentrations are evaluated per formulation and 2 performances are repeated). Two days after treatment, the number of living and dead female imagines of Kanzawa spider mite (Tetranychus kanzawai kishida) on the leaf disk is investigated and the mortality (%) is calculated according to the formula shown hereinbelow. From these mortality data, the LC50 values are obtained by conventional probit method. [formula]
For the above-mentioned values larger than 100, the larger value indicates a stronger synergistic action. For the value equal to 100, an additive action is indicated. For the values less than 100, the lesser value indicates a larger antagonistic action. A more detailed description of the calculation of the co-toxicity coefficient by the above-mentioned Sun and Johnson's method is the following. […] [formula]

[2] = system: susceptible strain of spider mite; assay: Effect of Compound A against a susceptible strain of spider mite; assay type: in vivo; conditions: not mentioned in the table

Structure (SMILES)	LC50 (ppm) [1] [ppm]	resistance against Compound A ([1]; resistant strain versus susceptible strain, LC50 values) [fold]	LC50 value [2]
CC1(C)C(C(=O)OC(C#N)c2cccc(Oc3ccccc3)c2)C1(C)C (racemic) [Fenpropathrin, (RS)-α-cyano-3-phenoxybenzyl 2,2,3,3-tetramethyl-cyclopropanecarboxylate]	290		
CC1(C)[C@H](C(=O)O[C@@H](C#N)c2cccc(Oc3ccccc3)c2)[C@@H]1/C=C(\Cl)C(F)(F)F (racemic) [Cyhalothrin, (RS)-α-cyano-3-phenoxybenzyl (Z)-(1RS,3RS)-3-(2-chloro-3,3,3-trifluoropropenyl)-2,2-dimethylcyclopropanecarboxylate]	590		
CCOCn1c(-c2ccc(Cl)cc2)c(C#N)c(Br)c1C(F)(F)F [Compound A, 4-bromo-2-(4-chlorophenyl)-1-(ethoxymethyl)-5-(trifluoromethyl)-pyrrole-3-carbonitrile]	1500	~300	about 5 ppm
CC(C)[C@H](Nc1ccc(C(F)(F)F)cc1Cl)C(=O)OC(C#N)c1cccc(Oc2ccccc2)c1 (stereo partly drawn) [Fluvalinate, (RS)-α-cyano-3-phenoxy-benzyl N-(2-chloro-α,α,α,α-trifluoro-p-tolyl)-D-valinate]	180		
CC1(C)C(C=C(Cl)Cl)C1C(=O)OC(C#N)c1cccc(Oc2ccccc2)c1 (racemic) [Cypermethrin, (RS)-α-cyano-3-phenoxybenzyl (1RS,3RS,1RS,3RS)-3-(2,2-dichlorovinyl)-2,2-dimethylcyclopro-panecarboxylate]	2500		
Cc1c(COC(=O)[C@@H]2[C@H](/C=C(\Cl)C(F)(F)F)C2(C)C)cccc1-c1ccccc1 (racemic) [Bifenthrin, 2-methylbiphenyl-3-ylmethyl (Z)-(1RS,3RS)-3-(2-chloro-3,3,3-trifluoroprop-1-enyl)-2,2-dimethylcyclopropanecar-boxylate]	20		
CC1(C)C(C=C(Cl)Cl)C1C(=O)OCc1cccc(Oc2ccccc2)c1 (stereo not drawn) [Permethrin, 3-phenoxybenzyl (1RS,3RS; 1RS,3RS)-3-(2,2-dichlorovinyl)-2,2-dimethylcyclopropanecarboxylate]	440		
CC1(C)C(C=C(Cl)Cl)C1C(=O)OC(C#N)c1ccc(F)c(Oc2ccccc2)c1 (racemic) [Cyfluthrin, (RS)-α-cyano4-fluoro-3-phenoxybenzyl (1RS,3RS; 1RS,3SR)-3-(2,2-dichlorovinyl)-2,2-dimethylcyclopropanecarboxylate]	1500		
CCOc1ccc(C(C)(C)COCc2cccc(Oc3ccccc3)c2)cc1 [Ethofenprox, 2-(4-ethoxyphenyl)-2-methylpropyl 3-phenoxybenzyl ether]	620		
